Reference: ChEMBL document CHEMBL5528043, “Development of Potent Mcl-1 Inhibitors: Structural Investigations on Macrocycles Originating from a DNA-Encoded Chemical Library Screen” (J Med Chem, 2024)
≈ marks a conversion by molar mass, not a printed value.

Key:
NCI-H929 [1] = assay: Cytotoxicity against human NCI-H929 cells assessed as cell viability measured after 72 hrs incubation by CellTiterGlo assay; type: functional, cell-based; details: NCI-H929, 72 h
[2] = biological target: Induced myeloid leukemia cell differentiation protein Mcl-1 (Homo sapiens, UniProt Q07820); assay: Inhibition of Mcl-1 (172-327) (unknown origin) using BIOTIN-AHXGQVGRQLAIIGDDINR-amide peptide by TR-FRET based BAK peptide displacement assay
Sequence of Induced myeloid leukemia cell differentiation protein Mcl-1 (Q07820 whole entry): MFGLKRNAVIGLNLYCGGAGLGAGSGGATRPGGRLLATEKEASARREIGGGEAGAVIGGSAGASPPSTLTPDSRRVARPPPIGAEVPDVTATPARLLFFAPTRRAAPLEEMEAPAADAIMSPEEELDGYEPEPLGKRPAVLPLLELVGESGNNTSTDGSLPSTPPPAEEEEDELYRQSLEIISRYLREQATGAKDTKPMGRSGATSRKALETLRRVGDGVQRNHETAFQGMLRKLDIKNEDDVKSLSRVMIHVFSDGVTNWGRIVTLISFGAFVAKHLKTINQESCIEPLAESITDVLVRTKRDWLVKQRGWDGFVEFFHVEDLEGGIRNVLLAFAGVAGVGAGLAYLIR

[3] = Kinetic solubility of the compound in pH 7.4 buffer measured after 24 hrs by LC-UV analysis; type: physicochemical; details: read-out: Kinetic_solubility
Bcl-2-like protein 1 = Bcl-2-like protein 1 (Homo sapiens, UniProt Q07817); assay: Inhibition of Bcl-xl (1-212) (unknown origin) using BIOTIN-AHXAHXGQVGRQLAIIGDDINR-amide peptide by TR-FRET based BAK peptide displacement assay
Sequence of Bcl-2-like protein 1 (Q07817 whole entry): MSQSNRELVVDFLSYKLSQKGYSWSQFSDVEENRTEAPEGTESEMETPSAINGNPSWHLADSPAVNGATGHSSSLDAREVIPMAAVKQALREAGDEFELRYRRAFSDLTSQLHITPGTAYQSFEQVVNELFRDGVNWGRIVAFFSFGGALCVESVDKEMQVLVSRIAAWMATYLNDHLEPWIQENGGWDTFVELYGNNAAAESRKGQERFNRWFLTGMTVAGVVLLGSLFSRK

NCI-H929 [4] = assay: Cytotoxicity against human NCI-H929 cells assessed as […] by measuring caspase 3/7 activity measured after 6 hrs by luminescence assay; type: functional, cell-based; details: NCI-H929, 6 h
[5] = Passive permeability of compound at pH 7.4 incubated for 4 hrs by PAMPA assay; type: ADME; details: read-out: permeability
[6] = Metabolic stability in rat liver S9 fraction assessed as half life; type: ADME, subcellular
[7] = Metabolic stability in rat liver S9 fraction assessed as intrinsic clearance; type: ADME, subcellular; details: read-out: CLH
[8] = Metabolic stability in mouse liver S9 fraction assessed as intrinsic clearance; type: ADME, subcellular; details: read-out: CLH
[9] = Metabolic stability in mouse liver S9 fraction assessed as half life; type: ADME, subcellular
[10] = Metabolic stability in human liver S9 fraction assessed as intrinsic clearance; type: ADME, subcellular; details: for microsomal CLint: liver S9 fraction, read-out: CLH
[11] = Metabolic stability in human liver S9 fraction assessed as half life; type: ADME, subcellular; details: for half-life: liver S9 fraction

Compound	IC50 [2] [nM]	solubility kinetic at 24 h [3] [µM]	Papp at 4 h [5] [×10⁻⁶ cm/s]	IC50 (NCI-H929 [1]) [nM]	IC50 (NCI-H929 [4]) [nM]	further results
CCOc1cc(Oc2cc(C)c(Cl)c(C)c2)cc2c1OCC(=O)N[C@H]1CC[C@H](CC1)CC(=O)N[C@@H](CC(C)C)C(=O)N[C@H](Cc1cccnc1)C(=O)N[C@H](C(=O)O)Cc1ccc(cc1)OC2	31000	> 80	5.3		1100	
CCOc1cc(Oc2cccc(C(F)(F)F)c2)cc2c1OCC(=O)N[C@H]1CC[C@H](CC1)CC(=O)N[C@@H](c1ccccc1)C(=O)N[C@H](Cc1ccccc1)C(=O)NCCc1ccc(cc1)OC2	12000			180		
CCOc1cc(Oc2cc(C)c(Cl)c(C)c2)cc2c1OCC(=O)N[C@H]1CC[C@H](CC1)CC(=O)N[C@@H](c1ccccc1)C(=O)N[C@H](Cc1cccnc1)C(=O)N[C@H](C(=O)O)Cc1ccc(cc1)OC2	13000	> 80	3.9		480	
CCOc1cc(Oc2cccc3ccccc23)cc2c1OCC(=O)N[C@H]1CC[C@H](CC1)CC(=O)N[C@@H](c1ccccc1)C(=O)N[C@H](Cc1ccccc1)C(=O)NCCc1ccc(cc1)OC2	12000			170		
CCOc1cc(Oc2cc(C)cc(C)c2)cc2c1OCC(=O)N[C@H]1CC[C@H](CC1)CC(=O)N[C@@H](c1ccccc1)C(=O)N[C@H](Cc1ccccc1)C(=O)NCCc1ccc(cc1)NC2	9100	< 2			94	
CCOc1cc(Oc2cc(C)c(Cl)c(C)c2)cc2c1OCC(=O)N[C@H]1CC[C@H](CC1)CC(=O)N[C@@H](c1ccccc1)C(=O)N[C@H](Cc1cccnc1)C(=O)NCCc1ccc(cc1)OC2	14000	< 2	5.5		45	
CCOc1cc(Oc2cc(C)c(Cl)c(C)c2)cc2c1OCC(=O)N[C@H]1CC[C@H](CC1)CC(=O)N[C@@H]([C@@H](C)OC)C(=O)N[C@H](Cc1ccncc1)C(=O)NCCc1ccc(cc1)OC2	9400	< 2			1400	
CCOc1cc(Oc2cc(C)c(Cl)c(C)c2)cc2c1OCC(=O)N[C@H]1CC[C@H](CC1)CC(=O)N[C@@H](CC(C)C)C(=O)N[C@H](Cc1cccnc1)C(=O)N[C@@H](C(=O)O)Cc1ccc(cc1)OC2	16000	11 (≈ 10.2 µg/mL)	1.5		410	
CCOc1cc(Oc2cc(C)c(Cl)c(C)c2)cc2c1OCC(=O)N[C@H]1CC[C@H](CC1)CC(=O)N[C@@H](c1ccccc1)C(=O)N1CCC[C@@H]1C(=O)NCCc1ccc(cc1)OC2	18000	< 2	7.3		540	
CCOc1cc(Oc2cccc(Cl)c2)cc2c1OCC(=O)N[C@H]1CC[C@H](CC1)CC(=O)N[C@@H](c1ccccc1)C(=O)N[C@H](Cc1ccccc1)C(=O)NCCc1ccc(cc1)OC2	22000			330		

The next compounds have a lower IC50 [2] than those just listed; values first:

IC50 [2] [nM]	solubility kinetic at 24 h [3] [µM]	Papp at 4 h [5] [×10⁻⁶ cm/s]	Compound	IC50 (NCI-H929 [1]) [nM]	IC50 (NCI-H929 [4]) [nM]	further results
7300			CCOc1cc(C#Cc2cccc(F)c2)cc2c1OCC(=O)N[C@H]1CC[C@H](CC1)CC(=O)N[C@@H](c1ccccc1)C(=O)N[C@H](Cc1ccccc1)C(=O)NCCc1ccc(cc1)OC2	2200		
1500	< 2		CCOc1cc(Oc2cc(C)c(Cl)c(C)c2)cc2c1OCC(=O)N[C@H]1CC[C@H](CC1)CC(=O)N[C@@H](c1ccccc1)C(=O)N[C@H](Cc1ccccc1)C(=O)NCCc1ccc(cc1)OC2	41	60	IC50 (Bcl-2-like protein 1): > 10000 nM
1600			CCOc1cc(Oc2cc(C)cc(C)c2)cc2c1OCC(=O)N[C@H]1CC[C@H](CC1)CC(=O)N[C@@H](c1ccccc1)C(=O)N[C@H](Cc1ccccc1)C(=O)NCCc1ccc(cc1)OC2	56		IC50 (Bcl-2-like protein 1): > 10000 nM
80	< 2		CCOc1cccc2c1OCC(=O)N[C@H]1CC[C@H](CC1)CC(=O)N[C@@H](c1ccccc1)C(=O)N[C@H](Cc1ccccc1)C(=O)N[C@H](C(=O)NC)Cc1ccc(cc1)NC2			half-life [6]: 39 min; microsomal CLint [7]: 18 µL/min/mg; IC50 (Bcl-2-like protein 1): > 10000 nM; microsomal CLint [8]: 35 µL/min/mg; half-life [9]: 20 min; CLH ([10]; s9): 17 µL/min/mg; t1/2 ([11]; s9): 17 min
50	< 2		CCOc1cccc2c1OCC(=O)N[C@H]1CC[C@H](CC1)CC(=O)N[C@@H](c1ccccc1)C(=O)N[C@H](Cc1ccccc1)C(=O)N[C@H](C(=O)NC)Cc1ccc(cc1)OC2			half-life [6]: 47 min; microsomal CLint [7]: 15 µL/min/mg; IC50 (Bcl-2-like protein 1): > 10000 nM; microsomal CLint [8]: 36 µL/min/mg; half-life [9]: 19 min; microsomal CLint [10]: 19 µL/min/mg; half-life [11]: 37 min
5300	< 2		CCOc1cc(Oc2cc(C)c(Cl)c(C)c2)cc2c1OCC(=O)N[C@H]1CC[C@H](CC1)CC(=O)N[C@@H](c1ccccc1)C(=O)N[C@H](Cc1ccccc1)C(=O)NCCc1ccc(cc1)NC2		57	
7700	> 80	2	CCOc1cc(Oc2cc(C)cc(C)c2)cc2c1OCC(=O)N[C@H]1CC[C@H](CC1)CC(=O)N[C@@H](c1ccccc1)C(=O)N[C@H](Cc1ccccc1)C(=O)N[C@H](C(=O)O)Cc1ccc(cc1)NC2		630	
5300	< 2		CCOc1cc(Oc2cc(C)c(Cl)c(C)c2)cc2c1OCC(=O)N[C@H]1CC[C@H](CC1)CC(=O)N[C@@H](CCS(C)(=O)=O)C(=O)N[C@H](Cc1ccncc1)C(=O)NCCc1ccc(cc1)OC2		> 10000	
1800			CCOc1cc(C#Cc2ccc(C(C)(C)C)cc2)cc2c1OCC(=O)N[C@H]1CC[C@H](CC1)CC(=O)N[C@@H](c1ccccc1)C(=O)N[C@H](Cc1ccccc1)C(=O)NCCc1ccc(cc1)OC2	9900		
130	< 2		CCOc1cccc2c1OCC(=O)N[C@H]1CC[C@H](CC1)CC(=O)N[C@@H](c1ccccc1)C(=O)N[C@H](Cc1ccccc1)C(=O)NCCc1ccc(cc1)OC2	> 10000		half-life [6]: 23 min; microsomal CLint [7]: 30 µL/min/mg; IC50 (Bcl-2-like protein 1): > 10000 nM; microsomal CLint [8]: 41 µL/min/mg; half-life [9]: 17 min; microsomal CLint [10]: 82 µL/min/mg; half-life [11]: 8 min
5700	> 80	< 1	CCOc1cc(Oc2cc(C)c(Cl)c(C)c2)cc2c1OCC(=O)N[C@H]1CC[C@H](CC1)CC(=O)N[C@@H](c1ccccc1)C(=O)N[C@H](Cc1ccccc1)C(=O)N[C@H](C(=O)O)Cc1ccc(cc1)NC2		1100	
5300	< 2	< 1	CCOc1cc(Oc2cc(C)c(Cl)c(C)c2)cc2c1OCC(=O)N[C@H]1CC[C@H](CC1)CC(=O)N[C@@H](c1ccccc1)C(=O)N[C@H](Cc1ccncc1)C(=O)NCCc1ccc(cc1)OC2		35	
8000			CCOc1cc(C#Cc2ccc(OC)cc2)cc2c1OCC(=O)N[C@H]1CC[C@H](CC1)CC(=O)N[C@@H](c1ccccc1)C(=O)N[C@H](Cc1ccccc1)C(=O)NCCc1ccc(cc1)OC2	1400		
